# Measured values published in the supplement of paper PMC11061612.
# Key:
# Test in all cases: Bliss excess, mean over the matrix (fraction); higher = more synergy
# [1] = tested on: NCI-H520 (Squamous Cell Lung Carcinoma)
# How it was run: (§1)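 After 24 hours at 37°C and 5% CO2 in 1536-well plates, cells in DMEM/F12 or RPMI plus 10% FBS received two-drug dose matrices for 72 hours. Viability came from CellTiter-Glo 2.0 luminescence and was scaled as inhibition, anchored at 0 by vehicle wells and at 1 by blank wells. Combination Emax is taken as the second-highest inhibition in the matrix, and Bliss excess as the observed combination effect less EA + EB − EA·EB, with EA and EB the single-agent effects.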
# [2] = tested on: VMRC-RCZ (Kidney Carcinoma)
# How it was run: as §1
# [3] = tested on: MN-60 (B-Lymphoblastic Leukemia)
# How it was run: as §1
# [4] = tested on: M059J (Glioblastoma)
# How it was run: as §1
# [5] = tested on: NCCIT (Other Solid Carcinomas)
# How it was run: as §1
# [6] = tested on: NCI-H2731 (Mesothelioma)
# How it was run: as §1
# [7] = tested on: MOG-G-CCM (Low Grade Glioma)
# How it was run: as §1
# [8] = tested on: KYSE-270 (Esophageal Squamous Cell Carcinoma)
# How it was run: as §1
# [9] = tested on: CW-2 (Colorectal Carcinoma)
# How it was run: as §1
# [10] = tested on: NCI-H929 (Plasma Cell Myeloma)
# How it was run: as §1
# [11] = tested on: KU812 (Chronic Myelogenous Leukemia)
# How it was run: as §1
# [12] = tested on: ST486 (Burkitt's Lymphoma)
# How it was run: as §1
# [13] = tested on: KP-3 (Pancreatic Carcinoma)
# How it was run: as §1
# [14] = tested on: NCI-H526 (Small Cell Lung Carcinoma)
# How it was run: as §1
# [15] = tested on: COR-L279 (Small Cell Lung Carcinoma)
# How it was run: as §1
# [16] = tested on: SK-GT-4 (Esophageal Adenocarcinoma)
# How it was run: as §1
# [17] = tested on: SJSA-1 (Osteosarcoma)
# How it was run: as §1
# [18] = tested on: NCI-H3122 (Lung Adenocarcinoma)
# How it was run: as §1
# [19] = tested on: DMS-114 (Small Cell Lung Carcinoma)
# How it was run: as §1
# [20] = tested on: T-T (Esophageal Squamous Cell Carcinoma)
# How it was run: as §1
Structure (SMILES),Bliss excess [1],Bliss excess [2],Bliss excess [3],Bliss excess [4],Bliss excess [5],Bliss excess [6],Bliss excess [7],Bliss excess [8],Bliss excess [9],Bliss excess [10],Bliss excess [11],Bliss excess [12],Bliss excess [13],Bliss excess [14],Bliss excess [15],Bliss excess [16],Bliss excess [17],Bliss excess [18],Bliss excess [19],Bliss excess [20]
"CC1(C)CCC(CN2CCN(c3ccc(C(=O)NS(=O)(=O)c4ccc(NCC5CCOCC5)c([N+](=O)[O-])c4)c(Oc4cnc5[nH]ccc5c4)c3)CC2)=C(c2ccc(Cl)cc2)C1 [Venetoclax] + CS(=O)(=O)CCNCc1ccc(-c2ccc3ncnc(Nc4ccc(OCc5cccc(F)c5)c(Cl)c4)c3c2)o1 [Lapatinib] (first compound max 1 µM, 7x7, partner max 10 µM)",-0.0169,-0.047,-0.0502,-0.0225,-0.024,-0.0257,-0.0568,-0.0175,-0.0116,-0.0098,0.0282,0.0224,-0.0487,0.105,-0.0185,-0.0436,-0.002,-0.0229,-0.0443,-0.0066
"O=C(c1cc(Cc2n[nH]c(=O)c3ccccc23)ccc1F)N1CCN(C(=O)C2CC2)CC1 [Olaparib] + Cc1c2c(nn1C)CSCc1cc(n(C)n1)CSc1cc(c3ccccc3c1)OCCCc1c(C(=O)O)n(C)c3c-2c(Cl)ccc13 [AZD5991] (first compound max 10 µM, 7x7, partner max 1 µM)",-0.0289,-0.049,-0.0496,0.0008,0.0176,-0.0452,-0.0519,-0.0303,-0.03,-0.0215,-0.0111,0.0593,-0.0576,0.0251,0.0494,-0.061,-0.0401,-0.0156,0.0106,-0.0217
"C[C@@H](Nc1cc(F)cc(F)c1)c1cc(C(=O)N(C)C)cc2c(=O)cc(N3CCOCC3)oc12 [AZD8186] + C1CN(CCC1(C(=O)N[C@@H](CCO)C2=CC=C(C=C2)Cl)N)C3=NC=NC4=C3C=CN4 [AZD5363] (first compound max 10 µM, 7x7, partner max 10 µM)",-0.034,-0.0134,-0.0655,-0.0145,0.0368,-0.0476,-0.058,0.0302,-0.0086,-0.0035,-0.053,-0.0265,-0.0207,-0.0238,0.0622,-0.0478,-0.0208,0.0211,0.0545,0.0073
"O=C(c1cc(Cc2n[nH]c(=O)c3ccccc23)ccc1F)N1CCN(C(=O)C2CC2)CC1 [Olaparib] + CN(CC[C@H](CSC1=CC=CC=C1)NC2=C(C=C(C=C2)S(=O)(=O)NC(=O)C3=CC=C(C=C3)N4CCC(CC4)[C@H](C5=CC=CC=C5C6=CC=C(C=C6)Cl)O)S(=O)(=O)C(F)(F)F)CCO [AZD4320] (first compound max 10 µM, 7x7, partner max 1 µM)",-0.0283,-0.064,-0.044,-0.0174,-0.0075,-0.0491,-0.0282,-0.0221,-0.0353,-0.0336,-0.0517,-0.0192,-0.0422,0.0311,0.0282,-0.0508,-0.0509,-0.0184,-0.0971,-0.0174
"C[C@@H](Oc1cc(-c2cnn(C3CCNCC3)c2)cnc1N)c1c(Cl)ccc(F)c1Cl [Crizotinib] + Cn1cnc2c(F)c(Nc3ccc(Br)cc3Cl)c(C(=O)NOCCO)cc21 [Selumetinib] (first compound max 10 µM, 7x7, partner max 10 µM)",-0.0779,-0.0338,-0.0797,-0.0562,-0.0503,-0.0382,-0.0423,0.0039,-0.0423,-0.0421,-0.0466,-0.0819,-0.0229,-0.0142,-0.0192,-0.0405,0.0262,-0.0479,-0.0814,0.0159
"O=C(c1cc(Cc2n[nH]c(=O)c3ccccc23)ccc1F)N1CCN(C(=O)C2CC2)CC1 [Olaparib] + CC1(C)CCC(CN2CCN(c3ccc(C(=O)NS(=O)(=O)c4ccc(NCC5CCOCC5)c([N+](=O)[O-])c4)c(Oc4cnc5[nH]ccc5c4)c3)CC2)=C(c2ccc(Cl)cc2)C1 [Venetoclax] (first compound max 10 µM, 7x7, partner max 1 µM)",-0.0201,-0.052,-0.0502,-0.0001,0.0127,-0.047,-0.0459,-0.0027,-0.0299,-0.0036,-0.0241,-0.0134,-0.0562,0.0372,0.0109,-0.056,-0.0375,-0.0681,-0.0446,-0.0375
"Cc1c2c(nn1C)CSCc1cc(n(C)n1)CSc1cc(c3ccccc3c1)OCCCc1c(C(=O)O)n(C)c3c-2c(Cl)ccc13 [AZD5991] + CC(=O)O[C@H]1C(=O)[C@@]2(C)[C@H]([C@H](OC(=O)c3ccccc3)[C@]3(O)C[C@H](OC(=O)[C@H](O)[C@@H](NC(=O)c4ccccc4)c4ccccc4)C(C)=C1C3(C)C)[C@]1(OC(C)=O)CO[C@@H]1C[C@@H]2O [Paclitaxel] (first compound max 1 µM, 7x7, partner max 3 µM)",-0.0478,-0.0234,-0.0293,-0.0193,0.0449,0.0237,0.0341,-0.0116,-0.0199,-0.0219,-0.108,-0.0046,-0.0622,0.0061,0.0035,-0.0197,-0.0168,-0.0003,0.0975,-0.0016
"N#Cc1cnc(Nc2cc(NC[C@H]3CNCCO3)c(C(F)(F)F)cn2)cn1 [SRA737] + CCc1c2c(nc3ccc(O)cc13)-c1cc3c(c(=O)n1C2)COC(=O)[C@]3(O)CC [SN-38] (first compound max 10 µM, 7x7, partner max 0.3 µM)",-0.0063,-0.0348,-0.0495,-0.0326,0.0294,-0.005,-0.0105,-0.0265,-0.0853,-0.0781,-0.0939,-0.0232,-0.0089,-0.0427,-0.0153,-0.0544,-0.0751,-0.0454,-0.0589,0.0451
"Cc1c2c(nn1C)CSCc1cc(n(C)n1)CSc1cc(c3ccccc3c1)OCCCc1c(C(=O)O)n(C)c3c-2c(Cl)ccc13 [AZD5991] + CS(=O)(=O)CCNCc1ccc(-c2ccc3ncnc(Nc4ccc(OCc5cccc(F)c5)c(Cl)c4)c3c2)o1 [Lapatinib] (first compound max 1 µM, 7x7, partner max 10 µM)",0.0111,-0.0195,-0.0584,-0.0103,-0.0119,0.0234,-0.0322,0.016,0.0142,-0.0113,-0.0005,-0.0655,-0.003,0.0226,-0.0053,0.0391,-0.0115,-0.0164,-0.0358,0.0522
"CN(CCO)CC[C@H](CSc1ccccc1)Nc1ccc(S(=O)(=O)NC(=O)c2ccc(N3CCC([C@@H](O)c4ccccc4-c4ccc(Cl)cc4)CC3)cc2)cc1S(=O)(=O)C(F)(F)F [AZD4320] + CS(=O)(=O)CCNCc1ccc(-c2ccc3ncnc(Nc4ccc(OCc5cccc(F)c5)c(Cl)c4)c3c2)o1 [Lapatinib] (first compound max 1 µM, 7x7, partner max 10 µM)",-0.0382,-0.0072,-0.0716,0.0681,0.0212,-0.0076,-0.0278,-0.0254,-0.0322,0.0248,0.0801,0.0668,-0.0588,0.0898,0.0862,0.0451,-0.085,0.0006,0.0146,-0.0055
"Cc1cc2ncnn2cc1Nc1ncc2c(n1)n(C1CCOCC1)c(=O)n2C [AZD7648] + COc1cc([C@@H]2c3cc4c(cc3[C@@H](O[C@@H]3O[C@@H]5CO[C@@H](C)O[C@H]5[C@H](O)[C@H]3O)[C@H]3COC(=O)[C@H]23)OCO4)cc(OC)c1O [Etoposide] (first compound max 10 µM, 7x7, partner max 10 µM)",0.0639,0.0743,0.06,0.003,0.0365,0.08,0.106,0.0627,0.0573,0.033,0.035,0.0989,-0.0136,0.121,0.149,0.0096,0.0316,0.0903,0.0198,0.0254
"C[C@@H](Oc1cc(-c2cnn(C3CCNCC3)c2)cnc1N)c1c(Cl)ccc(F)c1Cl [Crizotinib] + CC1=C(C(=CC=C1)Cl)NC(=O)C2=CN=C(S2)NC3=CC(=NC(=N3)C)N4CCN(CC4)CCO [Dasatinib] (first compound max 10 µM, 7x7, partner max 2 µM)",0.0375,0.0518,-0.0074,0.024,-0.0416,0.0443,0.0574,0.0481,-0.0315,-0.0147,0.0121,0.0506,-0.057,-0.0339,0.0599,0.0033,-0.0238,-0.0882,-0.0562,0.0322
